# Where “and” joins values, the source holds several entries; their conditions need not be identical. Equal entries are not always repeated.
# Test system: Long Evans rats
# Assay: Behavioral satiety sequence (BSS)
# Type: in vivo, Long Evans rat
# From the text: The Behavioural Satiety Sequence (BSS) is a technique used to evaluate physiological satiety. It is based on the expression of a sequence of behaviors including eating, grooming, locomotor activity, followed by resting, which are typically observed in rodents post-ingestion (Halford et al, 1998, Pharmacology Biochemistry and Behaviour. 61(2): 159-168). The BSS is a widely used model for determining the effects of novel pharmaceuticals on food intake and measures of satiety in rodents (Oliveira et al, 2011, Revista de Nutrição. 24(4) 619-628), and to discriminate the cause of reduced food intake following pharmacological manipulation. For example, treatments that may reduce food intake by non-specific mechanisms, such as immobility, malaise, and taste adulteration, will disrupt this sequence (Halford et al, 1998, Pharmacology Biochemistry and Behaviour. 61(2): 159-168).
# Specifically, 12 male Long-Evans rats were food-deprived for 22 h with a 2 h feeding period each day. Rats were trained to consume daily food during the 2 h period over 25 days. The testing phase was initiated once the rats consistently consumed 16-18 g of food per day with ≤10% variance in amount of feed consumed. Feeding took place in designated individual boxes in a quiet room separate from the housing room. Continuous remote monitoring via video camera during feeding was used to assess the BSS. Food consumption was measured by weighing the total available food before and after the 2 h feeding window, correcting for spillage. Lorcaserin (1 mg/kg) was included as a reference control (Higgins et al, 2011, Neuropsychopharmacology. 37(5): 1177-1191). Subjects were tested using a repeated-measures, Latin square design with 2-3 days wash-out between treatment cycles.
# On scheduled test days, animals were monitored remotely via video camera during the feeding access period. The occurrence of four mutually exclusive behaviors (eating/drinking, grooming, active, rest) were individually scored. Over the 2 h feeding period, behaviors were assessed every 30 seconds. Scores were compiled into 23 5 min timebins (timebin 24 was removed due to early removal of animals) and the frequency of each behavior within each timebin was calculated to determine a temporal frequency of each measure (Rodgers et al, 2010, Pharmacology Biochemistry and Behaviour. 97: 3-14). Percentage time was plotted for each behavioral sequence in each timebin to compare between treatment groups (Higgins et al, 2011, Neuropsychopharmacology. 37(5): 1177-1191).
# [1] = Compound I-19 0.1 mg/kg, AVG of animals LT-1 to LT-12, 0-0.5 hours
# [2] = Compound I-19 0.1 mg/kg, raw data per animal LT-1 to LT-12, 0-0.5 hours
# [3] = Compound I-19 0.1 mg/kg, raw score per animal (LT-1 to LT-12)
# [4] = Compound I-19 0.3 mg/kg, AVG of animals LT-1 to LT-12
structure (smiles),measurement,setting,value
Clc1ccc(C2(OCC3OCCO3)c3ccccc3C3=NCCN32)cc1 (stereo not drawn) [Compound I-19],"BSS scoring E (eating/drinking), Time Bin 4 (15-20 TOTAL), AVG",[1],0.87
same,"BSS scoring E (eating/drinking), Time Bin 5 (20-25 TOTAL), AVG",[1],0.89
same,"BSS scoring E (eating/drinking), Time Bin 6 (25-30 TOTAL), AVG",[1],0.81
same,"BSS scoring G (grooming), Time Bin 1 (0-5 TOTAL), AVG",[1],0.02
same,"BSS scoring G (grooming), Time Bin 2 (5-10 TOTAL), AVG",[1],0.00
same,"BSS scoring G (grooming), Time Bin 3 (10-15 TOTAL), AVG",[1],0.03
same,"BSS scoring G (grooming), Time Bin 4 (15-20 TOTAL), AVG",[1],0.03
same,"BSS scoring G (grooming), Time Bin 5 (20-25 TOTAL), AVG",[1],0.00
same,"BSS scoring G (grooming), Time Bin 6 (25-30 TOTAL), AVG",[1],0.04
same,"BSS scoring R (resting), Time Bin 1 (0-5 TOTAL), AVG",[1],0.00
same,"BSS scoring R (resting), Time Bin 2 (5-10 TOTAL), AVG",[1],0.00
same,"BSS scoring R (resting), Time Bin 3 (10-15 TOTAL), AVG",[1],0.00
same,"BSS scoring R (resting), Time Bin 4 (15-20 TOTAL), AVG",[1],0.02
same,"BSS scoring R (resting), Time Bin 5 (20-25 TOTAL), AVG",[1],0.03
same,"BSS scoring R (resting), Time Bin 6 (25-30 TOTAL), AVG",[1],0.02
same,"BSS scoring A (active), Time Bin 1 (0-5 TOTAL)",[2],0 (3×) and 1 (7×) and 2 (2×)
same,"BSS scoring A (active), Time Bin 2 (5-10 TOTAL)",[2],1 (5×) and 0 (7×)
same,"BSS scoring A (active), Time Bin 3 (10-15 TOTAL)",[2],1 (3×) and 0 (9×)
same,"BSS scoring A (active), Time Bin 4 (15-20 TOTAL)",[2],5 and 0 (8×) and 4 and 1 (2×)
same,"BSS scoring A (active), Time Bin 5 (20-25 TOTAL)",[2],1 (3×) and 0 (7×) and 3 (2×)
same,"BSS scoring A (active), Time Bin 6 (25-30 TOTAL)",[2],3 (2×) and 1 (6×) and 0 (3×) and 4
same,"BSS scoring E (eating/drinking), Time Bin 1 (0-5 TOTAL)",[2],10 (3×) and 8 (4×) and 9 (5×)
same,"BSS scoring E (eating/drinking), Time Bin 2 (5-10 TOTAL)",[2],9 (5×) and 10 (7×)
same,"BSS scoring E (eating/drinking), Time Bin 3 (10-15 TOTAL)",[2],9 (6×) and 10 (6×)
same,"BSS scoring E (eating/drinking), Time Bin 4 (15-20 TOTAL)",[2],5 and 10 (5×) and 9 (5×) and 4
same,"BSS scoring E (eating/drinking), Time Bin 5 (20-25 TOTAL)",[2],9 (3×) and 10 (6×) and 6 and 7 (2×)
same,"BSS scoring E (eating/drinking), Time Bin 6 (25-30 TOTAL)",[2],5 (2×) and 8 (4×) and 9 (2×) and 10 (3×) and 7
same,"BSS scoring G (grooming), Time Bin 1 (0-5 TOTAL)",[2],0 (10×) and 1 (2×)
same,"BSS scoring G (grooming), Time Bin 2 (5-10 TOTAL)",[2],0
same,"BSS scoring G (grooming), Time Bin 3 (10-15 TOTAL)",[2],0 (9×) and 1 (3×)
same,"BSS scoring G (grooming), Time Bin 4 (15-20 TOTAL)",[2],0 (9×) and 1 (3×)
same,"BSS scoring G (grooming), Time Bin 5 (20-25 TOTAL)",[2],0
same,"BSS scoring G (grooming), Time Bin 6 (25-30 TOTAL)",[2],0 (7×) and 1 (5×)
same,"BSS scoring R (resting), Time Bin 1 (0-5 TOTAL)",[2],0
same,"BSS scoring R (resting), Time Bin 2 (5-10 TOTAL)",[2],0
same,"BSS scoring R (resting), Time Bin 3 (10-15 TOTAL)",[2],0
same,"BSS scoring R (resting), Time Bin 4 (15-20 TOTAL)",[2],0 (10×) and 1 (2×)
same,"BSS scoring R (resting), Time Bin 5 (20-25 TOTAL)",[2],0 (9×) and 1 (2×) and 2
same,"BSS scoring R (resting), Time Bin 6 (25-30 TOTAL)",[2],2 and 0 (11×)
same,"BSS scoring A (active), Time Bin 19 (90-95 TOTAL)",[3],8 and 2 (6×) and 5 and 1 and 7 and 0 and 3
same,"BSS scoring A (active), Time Bin 20 (95-100 TOTAL)",[3],1 (4×) and 0 (4×) and 2 (3×) and 6
same,"BSS scoring A (active), Time Bin 21 (100-105 TOTAL)",[3],0 (8×) and 3 and 1 and 4 and 2
same,"BSS scoring A (active), Time Bin 22 (105-110 TOTAL)",[3],0 (6×) and 4 and 1 (2×) and 2 and 5 and 3
same,"BSS scoring A (active), Time Bin 23 (110-115 TOTAL)",[3],1 and 0 (5×) and 4 and 2 (2×) and 8 and 5 and 3
same,"BSS scoring A (active), Time Bin 24 (115-120 TOTAL)",[3],0 (5×) and 4 and 1 (2×) and 2 (2×) and 3 and 6
same,"BSS scoring E (eating/drinking), Time Bin 19 (90-95 TOTAL)",[3],2 and 4 (3×) and 6 and 0 and 7 (3×) and 3 and 10 and 8
same,"BSS scoring E (eating/drinking), Time Bin 20 (95-100 TOTAL)",[3],9 and 5 and 10 (3×) and 7 (2×) and 0 and 8 and 6 (2×) and 3
same,"BSS scoring E (eating/drinking), Time Bin 21 (100-105 TOTAL)",[3],10 (3×) and 3 and 9 (3×) and 0 and 8 (2×) and 5 and 6
same,"BSS scoring E (eating/drinking), Time Bin 22 (105-110 TOTAL)",[3],10 (2×) and 3 and 9 (2×) and 0 and 6 (2×) and 8 (3×) and 4
same,"BSS scoring E (eating/drinking), Time Bin 23 (110-115 TOTAL)",[3],9 (5×) and 10 and 3 (2×) and 0 and 4 and 5 and 7
same,"BSS scoring E (eating/drinking), Time Bin 24 (115-120 TOTAL)",[3],10 (2×) and 5 and 8 (3×) and 2 and 0 (2×) and 6 and 1 and 4
same,"BSS scoring G (grooming), Time Bin 19 (90-95 TOTAL)",[3],0 (8×) and 1 (4×)
same,"BSS scoring G (grooming), Time Bin 20 (95-100 TOTAL)",[3],0 (8×) and 2 (2×) and 1 (2×)
same,"BSS scoring G (grooming), Time Bin 21 (100-105 TOTAL)",[3],0 (8×) and 1 (3×) and 2
same,"BSS scoring G (grooming), Time Bin 22 (105-110 TOTAL)",[3],0 (8×) and 2 and 1 (3×)
same,"BSS scoring G (grooming), Time Bin 23 (110-115 TOTAL)",[3],0 (8×) and 1 (4×)
same,"BSS scoring G (grooming), Time Bin 24 (115-120 TOTAL)",[3],0 (9×) and 1 (2×) and 2
same,"BSS scoring R (resting), Time Bin 19 (90-95 TOTAL)",[3],0 (7×) and 4 and 1 (2×) and 9 and 3
same,"BSS scoring R (resting), Time Bin 20 (95-100 TOTAL)",[3],0 (6×) and 2 (2×) and 10 and 1 (3×)
same,"BSS scoring R (resting), Time Bin 21 (100-105 TOTAL)",[3],0 (7×) and 4 and 1 (2×) and 10 and 2
same,"BSS scoring R (resting), Time Bin 22 (105-110 TOTAL)",[3],0 (4×) and 1 (5×) and 8 and 3 and 2
same,"BSS scoring R (resting), Time Bin 23 (110-115 TOTAL)",[3],0 (3×) and 2 (2×) and 1 (6×) and 4
same,"BSS scoring R (resting), Time Bin 24 (115-120 TOTAL)",[3],0 (8×) and 1 (2×) and 8 and 5
same,"BSS scoring A (active), Time Bin 19 (90-95 TOTAL), AVG",[4],0.21
same,"BSS scoring A (active), Time Bin 20 (95-100 TOTAL), AVG",[4],0.17
same,"BSS scoring A (active), Time Bin 21 (100-105 TOTAL), AVG",[4],0.06
same,"BSS scoring A (active), Time Bin 22 (105-110 TOTAL), AVG",[4],0.08
same,"BSS scoring A (active), Time Bin 23 (110-115 TOTAL), AVG",[4],0.28
same,"BSS scoring A (active), Time Bin 24 (115-120 TOTAL), AVG",[4],0.14
same,"BSS scoring E (eating/drinking), Time Bin 19 (90-95 TOTAL), AVG",[4],0.63
same,"BSS scoring E (eating/drinking), Time Bin 20 (95-100 TOTAL), AVG",[4],0.69
same,"BSS scoring E (eating/drinking), Time Bin 21 (100-105 TOTAL), AVG",[4],0.73
same,"BSS scoring E (eating/drinking), Time Bin 22 (105-110 TOTAL), AVG",[4],0.69
same,"BSS scoring E (eating/drinking), Time Bin 23 (110-115 TOTAL), AVG",[4],0.52
same,"BSS scoring E (eating/drinking), Time Bin 24 (115-120 TOTAL), AVG",[4],0.44
